Results published in patent US20230028441A1, “NOVEL HETEROARYL-TRIAZOLE COMPOUNDS AS PESTICIDES” (Bayer Aktiengesellschaft, priority 2019, published 2023).

What was measured:
Format in all cases: in vivo
[1] = test system: cattle tick larvae (Rhipicephalus microplus), strain Parkhurst, resistant against synthetic pyrethroids; assay: Rhipicephalus (Boophilus) microplus in-vitro contact test, larval cattle tick; settings: 5 μg/cm^2 (=500 g/ha), after 48 hours, read-out: efficacy (larvae dead or moribund)
Method in brief: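 Efficacy, 100% meaning all larvae dead or moribund, was judged at 48 h from loss of negative geotactic climbing. Larvae of the Parkhurst strain, 20–50 per tube, were exposed at 27° C and 85% humidity to acetone-coated tube surfaces; 900 ppm corresponded to 5 μg/cm^2.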

[2] = test system: adult engorged female ticks (Rhipicephalus microplus); assay: Rhipicephalus (Boophilus) microplus injection test; settings: 168 h, egg deposition after 7 days, read-out: efficacy (infertile eggs); for pest or weed control at 0.004 mg: 4 μg/animal; for pest or weed control at 0.02 mg: 20 μg/animal
Method in brief: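 Efficacy is the share of infertile eggs: 100% means none are fertile, 0% means all are fertile. Egg deposition was checked 7 days after injecting 1 μL of DMSO-diluted compound into the abdomen of five engorged female R. microplus, with doubtful eggs kept about 42 days to hatching. The stock was 10 mg in 0.5 mL DMSO.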

[3] = test system: adult cat fleas (Ctenocephalides felis); assay: Ctenocephalides felis in-vitro contact test, adult cat flea; settings: 5 μg/cm^2 (=500 g/ha), after 48 hours, read-out: efficacy (fleas dead or moribund)
Method in brief: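 Efficacy (%) counts fleas that are dead or moribund, meaning unable to escape heat (45-50 °C, ≤5 min) by climbing. Scoring was done 48 h after 5-10 adults were placed at room temperature in glass tubes. The tubes carried a dried acetone film of compound, 5 μg/cm^2 at 900 ppm.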

[4] = test system: adult unfed cat fleas (Ctenocephalides felis); assay: Ctenocephalides felis oral test; settings: 48 h, 100 ppm in cattle blood, after 2 days
Method in brief: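 Percent flea mortality recorded at 2 days. Compound was dissolved in dimethyl sulfoxide and diluted into cattle blood, which ~20 unfed adult cat fleas ingested through parafilm from a 37°C-heated chamber, their own chamber kept at room temperature.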

[5] = test system: southern root-knot nematode (Meloidogyne incognita); assay: Meloidogyne incognita test; settings: 336 h, after 14 days, read-out: nematicidal activity (gall formation)
Protocol: Solvent: 125.0 parts by weight of acetone
To produce a suitable preparation of active compound, 1 part by weight of active compound is mixed with the stated amount of solvent, and the concentrate is diluted with water to the desired concentration.
Vessels are filled with sand, a solution of the active ingredient, a suspension containing eggs and larvae of the southern root-knot nematode (Meloidogyne incognita) and salad seeds. The salad seeds germinate and the seedlings grow. Galls develop in the roots.
After 14 days the nematicidal activity is determined on the basis of the percentage of gall formation. 100% means no galls were found and 0% means the number of galls found on the roots of the treated plants was equal to that in untreated control plants.

[6] = test system: green peach aphid (Myzus persicae); assay: Myzus persicae oral test; settings: 120 h
Method in brief: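 Aphids of mixed population ingest the compound preparation by sucking through a parafilm sheet stretched over wells holding test solution plus IPL41 insect medium (33%+15% sugar). Kill rate in percent is determined five days later.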

[7] = test system: green peach aphid (Myzus persicae); assay: Myzus persicae spray test; settings: foliar, 120 h, 100 g/ha, after 5 days, Chinese cabbage leaf disks
Method in brief: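 Chinese cabbage leaf disks carrying all instars of Myzus persicae were sprayed with compound. The formulation was acetone/dimethylformamide diluted in water with 1000 ppm alkylarylpolyglycol ether emulsifier. Percent mortality was scored after 5 days, with 100% meaning all aphids killed.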

[8] = test system: larvae of the southern green stink bug (Nezara viridula); assay: Nezara viridula spray test; settings: in Hordeum vulgare, 96 h
Method in brief: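 Percent mortality of southern green stink bug larvae read 4 days after spraying infested Hordeum vulgare. Test solutions: compound in acetone plus dimethylformamide, diluted with emulsifier-containing water (1000 ppm alkylarylpolyglycol ether).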

[9] = test system: fall armyworm larvae (Spodoptera frugiperda); assay: Spodoptera frugiperda spray test (maize leaf sections); settings: 168 h
Method in brief: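 Percent kill of Spodoptera frugiperda larvae was recorded 7 days after infesting dried, treated maize leaf sections. Spray solutions were made from an acetone/DMF compound preparation diluted with 1000 ppm emulsifier-containing water.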

[10] = test system: larvae of the banded cucumber beetle (Diabrotica balteata); assay: Diabrotica balteata spray test; settings: 168 h, after 7 days, wheat seeds, read-out: efficacy (seedlings grown up); for pest or weed control at 160 µg/disc, 500 g/ha: 500 g/ha (=160 μg/well); for pest or weed control at 32 µg/disc, 100 g/ha: 100 g/ha (=32 μg/well)
Method in brief: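 Efficacy (%) read at day 7: 100% means seedlings grew like untreated, uninfested controls; 0% means no seedlings grew. Wheat seeds germinated 1 day on agar, sprayed with emulsified compound solution (1000 ppm emulsifier in water), then each well infested with 10-20 larvae.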

[11] = test system: brown planthopper (Nilaparvata lugens); assay: Nilaparvata lugens spray test; settings: in Oryza sativa, 96 h
Method in brief: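 Rice plants (Oryza sativa) sprayed with compound in acetone/DMF diluted in water containing 1000 ppm alkylarylpolyglycol ether emulsifier, then infested with planthoppers. Mortality % scored after 4 days (100% = all killed, 0% = none killed).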

[12] = test system: adult brown dog ticks (Rhipicephalus sanguineus); assay: Rhipicephalus sanguineus in-vitro contact test with adult brown dog ticks; settings: after 48 hours, read-out: efficacy (ticks dead or moribund)
Method in brief: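 Efficacy is the percentage of adult ticks dead or moribund, meaning immotile or uncoordinated and unable to escape 45-50° C. heat within 5 min. Read 48 h after 5-10 ticks were enclosed at room temperature in acetone-coated glass tubes. Dose 5 μg/cm^2, from a 900 ppm coating solution.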

[13] = test system: caterpillars of the fall army worm (Spodoptera frugiperda); assay: Spodoptera frugiperda spray test (cotton leaves); settings: 168 h
Method in brief: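 Cotton leaves sprayed with compound in water/DMF with 1000 ppm alkylaryl polyglycol ether emulsifier, ammonium salt and/or penetration enhancer at 1000 ppm added if necessary, then infested with fall armyworm caterpillars. Mortality in % scored after 7 days; 100% means all caterpillars killed.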

CC(NC(=O)c1cc(Cl)cc(C(F)(F)F)c1)c1nc(C(=O)NC2CC2)nn1-c1ncccn1 (single isomer, unassigned) [I-076, 5-[1-[[3-chloro-5-(trifluoromethyl)benzoyl]amino]ethyl]-N-cyclopropyl-1-pyrimidin-2-yl-1,2,4-triazole-3-carboxamide]
pest or weed control at 5 µg/cm2 [1]: 90%
pest or weed control at 0.004 mg [2]: 100%
pest or weed control at 0.02 mg [2]: 100%
pest or weed control at 5 µg/cm2 [3]: 100%
mortality at 100 ppm [4]: 100%
pest or weed control at 20 ppm [5]: 90%
mortality at 4 ppm [6]: 100%
mortality at 100 g/ha [7]: 90%
mortality at 100 g/ha [8]: 100%
mortality at 100 g/ha [9]: 100%

CC(NC(=O)c1cc(Cl)cc(OC(F)(F)F)c1)c1nc(-c2ncccn2)nn1-c1ncccn1 (stereo not drawn) [I-051]
pest or weed control at 0.004 mg [2]: 100%
pest or weed control at 0.02 mg [2]: 100%
mortality at 100 ppm [4]: 100%
pest or weed control at 160 µg/disc, 500 g/ha [10]: 100%
pest or weed control at 20 ppm [5]: 100%
mortality at 4 ppm [6]: 100%
mortality at 100 g/ha [8]: 100%
mortality at 500 g/ha [8]: 100%
mortality at 500 g/ha [9]: 100%

CC(NC(=O)c1cc(Cl)cc(Cl)c1)c1nc(-c2ncccn2)nn1-c1ncccn1 (stereo not drawn) [I-054]
pest or weed control at 0.02 mg [2]: 100%
mortality at 100 ppm [4]: 100%
pest or weed control at 20 ppm [5]: 90%
mortality at 4 ppm [6]: 90%

CC(NC(=O)c1cc(Cl)cc(C(F)(F)F)c1)c1nc(-c2ncccn2)nn1-c1ncccn1 (stereo not drawn) [I-055]
pest or weed control at 0.02 mg [2]: 100%
mortality at 100 ppm [4]: 100%
pest or weed control at 160 µg/disc, 500 g/ha [10]: 100%
pest or weed control at 20 ppm [5]: 90%
mortality at 100 g/ha [8]: 100%
mortality at 500 g/ha [8]: 100%

CC(NC(=O)c1cc(Cl)cc(S(C)(=O)=O)c1)c1nc([S+]([O-])CC(F)(F)F)nn1-c1ccc(Cl)cn1 (stereo not drawn) [I-066]
pest or weed control at 0.004 mg [2]: 100%
pest or weed control at 0.02 mg [2]: 100%
mortality at 100 ppm [4]: 100%
pest or weed control at 20 ppm [5]: 90%

CNC(=O)c1nc(C(C)NC(=O)c2cc(Cl)cc(C(F)(F)F)c2)n(-c2ncccn2)n1 (stereo not drawn) [I-077]
pest or weed control at 0.004 mg [2]: 100%
pest or weed control at 0.02 mg [2]: 100%
pest or weed control at 5 µg/cm2 [3]: 90%
mortality at 100 ppm [4]: 100%
pest or weed control at 20 ppm [5]: 90%
mortality at 4 ppm [6]: 100%
mortality at 100 g/ha [7]: 90%
mortality at 100 g/ha [8]: 100%
mortality at 100 g/ha [11]: 90%

CC(NC(=O)c1cc(Cl)cc(C(F)(F)F)c1)c1nc(C(=O)NC2CC2)nn1-c1ccc(C#N)cn1 (stereo not drawn) [I-078]
pest or weed control at 5 µg/cm2 [1]: 90%
pest or weed control at 0.004 mg [2]: 100%
pest or weed control at 0.02 mg [2]: 100%
mortality at 100 ppm [4]: 100%
pest or weed control at 32 µg/disc, 100 g/ha [10]: 100%
pest or weed control at 20 ppm [5]: 90%
mortality at 4 ppm [6]: 90%
mortality at 100 g/ha [9]: 100%

C=CC(=O)Nc1nc(C(C)NC(=O)c2cc(Cl)cc(C(F)(F)F)c2)n(-c2ccc(Cl)cn2)n1 (stereo not drawn) [I-123]
pest or weed control at 5 µg/cm2 [1]: 90%
pest or weed control at 5 µg/cm2 [3]: 100%
pest or weed control at 32 µg/disc, 100 g/ha [10]: 100%
pest or weed control at 20 ppm [5]: 90%
mortality at 500 g/ha [8]: 100%
mortality at 100 g/ha [9]: 100%

CNc1nc([C@H](C)NC(=O)c2cc(OC(F)(F)F)cc(C3CC3)c2)n(-c2ncccn2)n1 [I-132]
pest or weed control at 5 µg/cm2 [1]: 100%
pest or weed control at 5 µg/cm2 [3]: 100%
pest or weed control at 1 µg/cm2, 100 g/ha ([12]; 1 μg/cm^2 (=100 g/ha)): 100%
pest or weed control at 5 µg/cm2, 500 g/ha ([12]; 5 μg/cm^2 (=500 g/ha)): 100%
pest or weed control at 32 µg/disc, 100 g/ha [10]: 100%
pest or weed control at 20 ppm [5]: 90%
mortality at 100 g/ha [7]: 90%
mortality at 500 g/ha [8]: 100%
mortality at 100 g/ha [9]: 100%
mortality at 20 ppm [13]: 100%

C[C@H](NC(=O)c1cc(Br)cc(Br)c1)c1nc(N2CCOCC2)nn1-c1ncccn1 [I-144]
pest or weed control at 5 µg/cm2 [1]: 100%
pest or weed control at 5 µg/cm2 [3]: 90%
pest or weed control at 32 µg/disc, 100 g/ha [10]: 100%
pest or weed control at 20 ppm [5]: 90%

C[C@H](NC(=O)c1cc(C(F)(F)F)cc(C(F)(F)F)c1)c1nc(N2CCOCC2)nn1-c1ncccn1 [I-145, N-[(1S)-1-(5-morpholino-2-pyrimidin-2-yl-1,2,4-triazol-3-yl)ethyl]-3,5-bis(trifluoromethyl)benzamide]
pest or weed control at 5 µg/cm2 [1]: 100%
pest or weed control at 5 µg/cm2 [3]: 80%
pest or weed control at 32 µg/disc, 100 g/ha [10]: 100%
pest or weed control at 20 ppm [5]: 100%
mortality at 500 g/ha [8]: 100%
mortality at 100 g/ha [9]: 100%

C[C@H](NC(=O)c1cc(OC(F)(F)F)cc(C2CC2)c1)c1nc(N2CCOCC2)nn1-c1ncccn1 [I-146]
pest or weed control at 5 µg/cm2 [1]: 90%
pest or weed control at 32 µg/disc, 100 g/ha [10]: 100%
pest or weed control at 20 ppm [5]: 100%
mortality at 500 g/ha [8]: 100%
mortality at 100 g/ha [9]: 100%

C[C@H](NC(=O)c1cc(Br)cc(OC(F)(F)F)c1)c1nc(N2CCOCC2)nn1-c1ncccn1 [I-147]
pest or weed control at 5 µg/cm2 [1]: 100%
pest or weed control at 32 µg/disc, 100 g/ha [10]: 100%
pest or weed control at 20 ppm [5]: 100%
